Source: publication PMC6895180 (Nature Communications, 2019)
Values joined by “and” are separate entries in the source; they are usually repeats but may differ in a detail not shown here. Equal values may be shown once.

How the values were obtained:
T. brucei ADKIN = molecular target: T1, T. brucei ADKIN (Trypanosoma brucei brucei, UniProt Q584S6); test: ADKIN assay (phosphorylation by purified recombinant enzyme, HPLC); format: biochemical; set-up: Conc.9-MP: unit not given here; conditions: for Conc.9-MP: TbAK assay; for Act (U/mg): TbAK
T1 sequence (Q584S6 1-345): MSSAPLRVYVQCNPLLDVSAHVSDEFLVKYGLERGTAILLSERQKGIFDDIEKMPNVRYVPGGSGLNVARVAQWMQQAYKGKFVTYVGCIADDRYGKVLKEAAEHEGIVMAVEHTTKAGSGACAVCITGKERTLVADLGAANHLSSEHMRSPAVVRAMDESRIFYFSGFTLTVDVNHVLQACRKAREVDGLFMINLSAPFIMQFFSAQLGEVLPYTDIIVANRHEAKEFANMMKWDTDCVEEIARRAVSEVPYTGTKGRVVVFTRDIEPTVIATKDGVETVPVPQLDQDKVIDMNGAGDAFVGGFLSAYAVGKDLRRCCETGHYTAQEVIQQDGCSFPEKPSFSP
Method: The T. brucei ADKIN enzyme was diluted in a buffer containing 0.05% (v/v) Tween-20, 50 mM KCl, 0.1 mM dithiothreitol, and 50 mM Tris-HCl, pH 7.5 (dilution buffer), prior to use in the assay. The final assay mixture contained 12.5 ng T. brucei ADKIN, a range between 50 and 1000 µM of nucleoside 9 (or 1000 µM deoxyadenosine in the control reaction), 100 mM KCl, 10 mM MgCl2, 0.5 mM ATP, 5 mM potassium phosphate and 50 mM Tris-HCl, pH 7.5. The assay was incubated at 37 °C for 30 min, and subsequently heated for 2 min at 100 °C to inactivate the enzyme, diluted with 2 volumes of water, centrifuged through a Nanosep 3k Omega filter and mixed 1:1:2 with water and mobile phase. The HPLC analysis was performed on a 2.1 × 150 mm ACE Excel C18 column using a mobile phase composition 4A:76B:20C (see nucleotide pool analysis, Supplementary Information for details). Using these conditions, consecutive samples could be loaded (Supplementary Fig. 12). After 4–5 samples, the column was washed with high percent A (80A:20C) to remove bound ADP and ATP before re-equilibrating the column to original conditions.

T. brucei NY-SM cells = test: RNA quantification (total RNA, RT-qPCR of SL-RNA, 18S rRNA, TERT); format: cell-based, Trypanosoma brucei; conditions: for RNA Yield: RNA Content: Control 1.00; for RNA Yield: 18S rRNA / RNA Yield: SL-RNA / RNA Yield: TERT: Control about 1
Method: After 24 h, the cells were harvested and washed with PBS. […] RNA was extracted using the QIAamp RNA Blood Mini Kit (Qiagen). Total RNA yields were determined using both Nanodrop 2000 spectrometry and Qubit fluorimetric RNA content analysis. Additionally, specific transcripts in the RNA pool were quantified using RT-qPCR targeting the SL-RNA, 18S rRNA and transcripts encoding the telomerase reverse transcriptase (TERT)[28],[56]. A list of primers used is provided in the Supplementary Methods section of the Supplementary Information.

[1] = Metabolic stability, pooled human liver microsomes (phase I and II)
Method: (§1) Mouse, rat, and pooled human liver microsomes were purchased from a commercial source (Corning) and stored at -80 °C. NADPH generating system solutions A and B and UGT reaction mix solutions A and B (Corning) were kept at -20°C. The test compound and the reference compounds diclofenac (MW […]
(§2) microsomal stability assay was carried out based on the BD Biosciences Guidelines for Use (TF000017 Rev1.0) with minor adaptations. Metabolic stability of the compounds was studied through the CYP450 superfamily (phase I metabolism) by fortification with reduced nicotinamide adenine dinucleotide phosphate (NADPH) and through uridine glucuronosyl-transferase (UGT) enzymes (phase II metabolism) by fortification with uridine diphosphate glucuronic acid (UDPGA). For the CYP450 and other NADPH dependent enzymes, both compounds were incubated at 5 µM together with 0.5 mg mL-1 liver microsomes in potassium phosphate buffer in a reaction started by the addition of 1 mM NADPH […]
(§3) At these time points, 20 µL was withdrawn from the reaction mixture and 80 µL cold acetonitrile (ACN) containing the internal standard tolbutamide, was added to inactivate the enzymes and precipitate the proteins. The mixture was vortexed for 30 s and centrifuged at 4 °C for 5 min at 15,000 rpm. The supernatant was stored at -80°C until analysis. For the UGT enzymes, both compounds were incubated at 5 µM together with 0.5 mg mL-1 liver microsomes in a reaction started by the addition of 2 mM UDPGA cofactor. The corresponding loss of parent compound was determined using liquid chromatography (UPLC) (Waters AquityTM) coupled with tandem quadrupole mass spectrometry (MS²) (Waters XevoTM), equipped with an electrospray ionization (ESI) interface and operated in multiple reaction monitoring (MRM) mode. […]

[2] = Metabolic stability, mouse liver microsomes (phase I and II)
Method: as §1, §2, §3

Nc1ncnc2c1ccn2[C@@H]1O[C@H](CO)C[C@H]1O [Compound 9, 3’-deoxytubercidin]
Conc.9-MP (T. brucei ADKIN; substrate 50 µM, 3 series): 11.2244 and 8.987 and 9.705
Conc.9-MP (T. brucei ADKIN; substrate 100 µM): 19.1548 and 15.376 and 17.4986
Conc.9-MP (T. brucei ADKIN; substrate 250 µM): 33.0019 and 26.0907 and 28.4308
Conc.9-MP (T. brucei ADKIN; substrate 500 µM): 42.1131 and 37.0292 and 37.487
Conc.9-MP (T. brucei ADKIN; substrate 1000 µM): 45.1958 and 43.7663 and 38.425
Act (U/mg) (T. brucei ADKIN; substrate 50 µM, U = µmol/min): 1.497 U/mg and 1.198 U/mg and 1.294 U/mg
Act (U/mg) (T. brucei ADKIN; substrate 100 µM): 2.554 U/mg and 2.05 U/mg and 2.333 U/mg
Act (U/mg) (T. brucei ADKIN; substrate 250 µM): 4.4 U/mg and 3.479 U/mg and 3.791 U/mg
Act (U/mg) (T. brucei ADKIN; substrate 500 µM): 5.615 U/mg and 4.937 U/mg and 4.998 U/mg
Act (U/mg) (T. brucei ADKIN; substrate 1000 µM): 6.0261 U/mg and 5.836 U/mg and 5.123 U/mg
Vmax mg^−1 with TbADKIN (T. brucei ADKIN; mean and SE, n = 3): 0.116 ± 0.0048 U (µmol s^−1)
Vmax/mg with TbADKIN (original value) (T. brucei ADKIN; value before revision): 6.93 ± 0.29 U (µmol . min-1)
RNA Yield: RNA Content (T. brucei NY-SM cells; 1.4 nM): 1.35 and 1.46
RNA Yield: 18S rRNA (T. brucei NY-SM cells; 1.4 nM): 0.9222 and 0.9324 and 0.9996 and 1.001
RNA Yield: SL-RNA (T. brucei NY-SM cells; 1.4 nM): 0.789 and 0.7785 and 0.978 and 0.9385
RNA Yield: TERT (T. brucei NY-SM cells; 1.4 nM): 0.9232 and 0.9182 and 1.015 and 1.009
RNA Yield: RNA Content (T. brucei NY-SM cells; 3.5 nM): 0.81 and 1.07
RNA Yield: 18S rRNA (T. brucei NY-SM cells; 3.5 nM): 0.9119 and 1.014 and 1.009 and 1.044
RNA Yield: SL-RNA (T. brucei NY-SM cells; 3.5 nM): 0.7939 and 0.7953 and 1.021 and 1.016
RNA Yield: TERT (T. brucei NY-SM cells; 3.5 nM): 0.9429 and 0.9282 and 1.046 and 1.035
RNA Yield: RNA Content (T. brucei NY-SM cells; 7 nM): 0.50 and 0.86
RNA Yield: 18S rRNA (T. brucei NY-SM cells; 7 nM): 1.036 and 1.037
RNA Yield: SL-RNA (T. brucei NY-SM cells; 7 nM): 1.052 and 1.049
RNA Yield: TERT (T. brucei NY-SM cells; 7 nM): 1.046 and 1.042
impact on RNA synthesis (T. brucei NY-SM cells; 24 h, various concentrations): absence of a major impact on the total RNA pool and the levels of specific transcripts
% analogue 9 remaining, EXP 1 / EXP 2 ([1]; microsomes, 0 min, 5 µM): 100%
% analogue 9 remaining, Mean ([1]; microsomes, 0 min, 5 µM): 100%
metabolic stability ([1]; s9, 0.5 h): metabolically stable
% analogue 9 remaining, EXP 1 / EXP 2 ([2]; microsomes, 0 min, 5 µM): 100%
% analogue 9 remaining, Mean ([2]; microsomes, 0 min, 5 µM): 100%
metabolic stability ([2]; s9, 0.5 h): metabolically stable
